These results are taken from patent US20190010158A1, “ANTITUMOR EFFECT POTENTIATOR COMPRISING PYRROLOPYRIMIDINE COMPOUND” (TAIHO PHARMACEUTICAL CO., LTD, priority 2015, published 2019).

The test system of test [1] is tumor cell lines shown in Table 24. Put plainly: Example 2: combined use with tyrosine kinase inhibitor, cell growth inhibition test (IC50 ratio, CI). Format: cell-based. As to conditions: for Comprehensive Evaluation: combined use with Reference Example Compound 55.
Test [2] relates to human acute T lymphoblastic leukemia CCRF-CEM cell lines. In words: Cell growth inhibition 1 (CellTiter-Glo). In kind it is cell-based. Particulars: culture with test compound 72 hours.
[3] abbreviates: SNU-16, Reference Example Compound 55:other compound 1:3.3, at ED50.
The mark [4] stands for this setting: SNU-16, Reference Example Compound 55:other compound 1:10, at ED50.

Structures are written as SMILES. Where “and” joins values, the source holds several entries; their conditions need not be identical. Equal values may be shown once. Read-outs that look alike come from different tables or passages of the source.

Consider `Cc1cc(Nc2ncnc3ccc(NC4=NC(C)(C)CO4)cc23)ccc1Oc1ccn2ncnc2c1` [ARRY380], for which the CI in test [1] (A431, Reference Example Compound 55:other compound 1:36 (only ratio calculated), at ED50) is recorded as 0.34. In addition, in test [1] (A431), the “Comprehensive Evaluation” value was “Synergism (0.3-0.7)”.
In the case of `CN(C)C/C=C/C(=O)Nc1cc2c(Nc3ccc(F)c(Cl)c3)ncnc2cc1O[C@H]1CCOC1` [Afatinib, afatinib], the CI in test [1] (A549, Reference Example Compound 55:other compound 1:1.7, at ED50) is 0.70; in test [1] (A549, Reference Example Compound 55:other compound 1:5, at ED50), 0.48. Besides, the “Comprehensive Evaluation” value in test [1] (A549) is “Synergism (0.3-0.7)”.
In the case of `CCc1cc2c(cc1N1CCC(N3CCOCC3)CC1)C(C)(C)c1[nH]c3cc(C#N)ccc3c1C2=O` [Alectinib, alectinib], the CI in test [1] (MM.1S, Reference Example Compound 55:other compound 1:3000, at ED50) was 0.58; in test [1] (MM.1S, Reference Example Compound 55:other compound 1:9000, at ED50), 0.59. In test [1] (MM.1S), the “Comprehensive Evaluation” value is “Synergism (0.3-0.7)”.
Turning to `CC1(COc2ccc3c(c2)ncn3-c2ccc3cccc(N4CCC(N)CC4)c3n2)COC1` [Crenolanib, crenolanib], the CI in test [1] (MV4-11, Reference Example Compound 55:other compound 1:3.7, at ED50) came to 0.91; in test [1] (MV4-11, Reference Example Compound 55:other compound 1:11, at ED50), 0.83. Besides, in test [1] (MV4-11), the “Comprehensive Evaluation” value is reported as “Additive (0.9-1.10)”.
For `C[C@@H](Oc1cc(-c2cnn(C3CCNCC3)c2)cnc1N)c1c(Cl)ccc(F)c1Cl` [Crizotinib, crizotinib], the CI in test [1] (MM.1S, Reference Example Compound 55:other compound 1:37, at ED50) is recorded as 0.87; in test [1] (MM.1S, Reference Example Compound 55:other compound 1:111, at ED50), 0.74. For the same molecule, the “Comprehensive Evaluation” value in test [1] (MM.1S) is “Slight”.
On to `Cc1nc(Nc2ncc(C(=O)Nc3c(C)cccc3Cl)s2)cc(N2CCN(CCO)CC2)n1` [Dasatinib, dasatinib], for which the CI in test [1] (HCT116, Reference Example Compound 55:other compound 1:300, at ED50) came to 0.83; in test [1] (HCT116, Reference Example Compound 55:other compound 1:900, at ED50) it was 0.96. The “Comprehensive Evaluation” value in test [1] (HCT116) is “Additive (0.9-1.10)”.
In the case of `C#Cc1cccc(Nc2ncnc3cc(OCCOC)c(OCCOC)cc23)c1` [Erlotinib, erlotinib], the CI in test [1] is 0.45; in test [1] (A549, Reference Example Compound 55:other compound 1:10, at ED50), 0.54. Also, the “Comprehensive Evaluation” value in test [1] (A549) is “Synergism (0.3-0.7)”.
With `COc1cc2ncnc(Nc3ccc(F)c(Cl)c3)c2cc1OCCCN1CCOCC1` [Gefitinib, gefitinib], the CI in test [1] (A431, Reference Example Compound 55:other compound 1:5, at ED50) worked out at 0.33; in test [1] (A431, Reference Example Compound 55:other compound 1:15, at ED50), 0.32. Further, the “Comprehensive Evaluation” value in test [1] (A431) was “Synergism (0.3-0.7)”.
Turning to `Cc1ccc(NC(=O)c2ccc(CN3CCN(C)CC3)cc2)cc1Nc1nccc(-c2cccnc2)n1` [Imatinib, imatinib], in test [1], the CI was 0.31 and 0.35. For the same molecule, the “Comprehensive Evaluation” value in test [1] (A549) is “Synergism (0.3-0.7)”.
Consider `CS(=O)(=O)CCNCc1ccc(-c2ccc3ncnc(Nc4ccc(OCc5cccc(F)c5)c(Cl)c4)c3c2)o1` [Lapatinib, lapatinib], for which the CI stood at 0.15 in test [1] (A431, Reference Example Compound 55:other compound 1:10, at ED50) and 0.19 in test [1] (A431, Reference Example Compound 55:other compound 1:30, at ED50). In test [1] (A431), the “Comprehensive Evaluation” value is “Strong”.
`COc1cc2nccc(Oc3ccc(NC(=O)NC4CC4)c(Cl)c3)c2cc1C(N)=O` [Lenvatinib, lenvatinib]: the CI in test [1] (setting [3]) is on record as 0.44; in test [1] (setting [4]), 0.63. The “Comprehensive Evaluation” value in test [1] (SNU-16) was “Synergism (0.3-0.7)”.
Consider `Cc1ccc(NC(=O)c2ccc(CN3CCN(C)CC3)cc2)cc1Nc1nc(-c2cccnc2)cs1` [Masitinib, masitinib], for which the CI came out at 0.31 in test [1] (MOLT-4, Reference Example Compound 55:other compound 1:33, at ED50) and 0.20 in test [1] (MOLT-4, Reference Example Compound 55:other compound 1:100, at ED50). Moreover, in test [1] (MOLT-4), the “Comprehensive Evaluation” value is “Synergism (0.3-0.7)”.
As for `C=CC(=O)Nc1cc(Nc2nccc(-c3cn(C)c4ccccc34)n2)c(OC)cc1N(C)CCN(C)C` [Osimertinib, osimertinib], the CI in test [1] (NCI-H1975, Reference Example Compound 55:other compound 1:0.01, at ED50) worked out at 0.96; in test [1] (NCI-H1975, Reference Example Compound 55:other compound 1:0.03, at ED50) it was 0.99. Also, the “Comprehensive Evaluation” value in test [1] (NCI-H1975) is given as “Additive (0.9-1.10)”.
For the molecule `Cc1ccc(Nc2nccc(N(C)c3ccc4c(C)n(C)nc4c3)n2)cc1S(N)(=O)=O` [Pazopanib, pazopanib], the CI in test [1] (SNU-16, Reference Example Compound 55:other compound 1:30, at ED50) came to 0.71; in test [1] (SNU-16, Reference Example Compound 55:other compound 1:90, at ED50), 0.52.
Regarding `Cc1ccc(C(=O)Nc2ccc(CN3CCN(C)CC3)c(C(F)(F)F)c2)cc1C#Cc1cnc2cccnn12` [Ponatinib, ponatinib], the CI in test [1] was 0.46 and 0.36.
Consider `CC(C)(C)c1cc(NC(=O)Nc2ccc(-c3cn4c(n3)sc3cc(OCCN5CCOCC5)ccc34)cc2)no1` [Quizartinib, quizartinib], for which the CI is recorded as 0.39 in test [1] (MOLT-4, Reference Example Compound 55:other compound 1:111, at ED50) and 0.44 in test [1] (MOLT-4, Reference Example Compound 55:other compound 1:333, at ED50). For the same molecule, the “Comprehensive Evaluation” value in test [1] (MOLT-4) is listed as “Synergism (0.3-0.7)”.
In general, IC50 refers to the midpoint of a concentration-inhibition curve. A high value points to lower potency. The molecule `Nc1ncnc2c1c(C#CCc1c(F)cccc1F)cn2[C@@H]1O[C@H](CNS(N)(=O)=O)[C@@H](O)[C@H]1O` [Reference Example 31, 4-Amino-5-[3-(2,6-difluorophenyl)prop-1-ynyl]-7-[(2R,3R,4S,5R)-3,4-dihydroxy-5-[(sulfamoylamino)methyl]tetrahydrofuran-2-yl]pyrrolo[2,3-d]pyrimidine] returned an IC50 in test [2] of 600 nM.
In test [2], `Nc1ncnc2c1c(C#Cc1c(F)cc(NCCO)cc1F)cn2[C@@H]1O[C@H](CNS(N)(=O)=O)[C@@H](O)[C@H]1O` [Reference Example 32, 4-Amino-5-[2-[2,6-difluoro-4-(2-hydroxyethylamino)phenyl]ethynyl]-7-[(2R,3R,4S,5R)-3,4-dihydroxy-5-[(sulfamoylamino)methyl]tetrahydrofuran-2-yl]pyrrolo[2,3-d]pyrimidine] gave an IC50 of 2500 nM.
Still for that read-out and setting: to `CCOc1cc(N2CCOCC2)cc(F)c1C#Cc1cn([C@@H]2O[C@H](CNS(N)(=O)=O)[C@@H](O)[C@H]2O)c2ncnc(N)c12` [Reference Example 34, 4-[4-[2-[4-Amino-7-[(2R,3R,4S,5R)-3,4-dihydroxy-5-[(sulfamoylamino)methyl]tetrahydrofuran-2-yl]pyrrolo[2,3-d]pyrimidin-5-yl]ethynyl]-3-ethoxy-5-fluoro-phenyl]morpholine] belongs 6.1 nM.
On the same count and under the same terms, to `CCOc1cc(F)cc(F)c1C#Cc1cn([C@@H]2O[C@H](CNS(N)(=O)=O)[C@@H](O)[C@H]2O)c2ncnc(N)c12` [Reference Example 35, 4-Amino-7-[(2R,3R,4S,5R)-3,4-dihydroxy-5-[(sulfamoylamino)methyl]tetrahydrofuran-2-yl]-5-[2-(2-ethoxy-4,6-difluoro-phenyl)ethynyl]pyrrolo[2,3-d]pyrimidine] belongs 2 nM; to `Nc1ncnc2c1c(C#CCc1ccccc1F)cn2[C@@H]1O[C@H](CNS(N)(=O)=O)[C@@H](O)[C@H]1O` [Reference Example 36, 4-Amino-7-[(2R,3R,4S,5R)-3,4-dihydroxy-5-[(sulfamoylamino)methyl]tetrahydrofuran-2-yl]-5-[3-(2-fluorophenyl)prop-1-ynyl]pyrrolo[2,3-d]pyrimidine], 250 nM; to `Nc1ncnc2c1c(C#Cc1c(F)cc(N3CCSCC3)cc1F)cn2[C@@H]1O[C@H](CNS(N)(=O)=O)[C@@H](O)[C@H]1O` [Reference Example 37, 4-[4-[2-[4-Amino-7-[(2R,3R,4S,5R)-3,4-dihydroxy-5-[(sulfamoylamino)methyl]tetrahydrofuran-2-yl]pyrrolo[2,3-d]pyrimidin-5-yl]ethynyl]-3,5-difluoro-phenyl]thiomorpholine], 6 nM.
Same read-out and setting: to `Nc1ncnc2c1c(C#Cc1c(F)cc(N3CCCC(O)C3)cc1F)cn2[C@@H]1O[C@H](CNS(N)(=O)=O)[C@@H](O)[C@H]1O` (stereo partly drawn) [Reference Example 38, 4-Amino-5-[2-[2,6-difluoro-4-(3-hydroxy-1-piperidyl)phenyl]ethynyl]-7-[(2R,3R,4S,5R)-3,4-dihydroxy-5-[(sulfamoylamino)methyl]tetrahydrofuran-2-yl]pyrrolo[2,3-d]pyrimidine] belongs 14 nM; to `Nc1ncnc2c1c(C#Cc1c(F)cc(N3CCC3)cc1F)cn2[C@@H]1O[C@H](CNS(N)(=O)=O)[C@@H](O)[C@H]1O` [Reference Example 43, 4-amino-5-[2-[4-(azetidin-1-yl)-2,6-difluoro-phenyl]ethynyl]-7-[(2R,3R,4S,5R)-3,4-dihydroxy-5-[(sulfamoylamino)methyl]tetrahydrofuran-2-yl]pyrrolo[2,3-d]pyrimidine], 2.7 nM.
On to `CNC(=O)c1cc(Oc2ccc(NC(=O)Nc3ccc(Cl)c(C(F)(F)F)c3)c(F)c2)ccn1` [Regorafenib, regorafenib], for which the CI in test [1] (SNU-16, Reference Example Compound 55:other compound 1:15, at ED50) was 0.88; in test [1] (SNU-16, Reference Example Compound 55:other compound 1:45, at ED50), 1.06. Further, in test [1] (SNU-16), the “Comprehensive Evaluation” value was “Additive (0.9-1.10)”.
`N#CC[C@H](C1CCCC1)n1cc(-c2ncnc3[nH]ccc23)cn1` [Ruxolitinib, ruxolitinib]: the CI in test [1] came to 0.82.
On to `CCN(CC)CCNC(=O)c1c(C)[nH]c(/C=C2\C(=O)Nc3ccc(F)cc32)c1C` [Sunitinib, sunitinib], for which the CI is 0.86 in test [1] (setting [3]) and 0.91 in test [1] (setting [4]). Further, in test [1] (SNU-16), the “Comprehensive Evaluation” value was “Additive (0.9-1.10)”.
